Columns and labels:
[1] = target: T1, Mtb proteasome (Mycobacterium tuberculosis, UniProt P9WHT9); test: biochemical; assay type: biochemical
T1 construct: made in house

[2] = system: ß5i of IP; details: cited from earlier work; for RA at 10 µM against ß5i of IP: residual activity of β5i in the presence of 10 μM compound; for IC50: read-out: IC50 against ß5i of IP

T1 sequence (P9WHT9 whole entry, looked up): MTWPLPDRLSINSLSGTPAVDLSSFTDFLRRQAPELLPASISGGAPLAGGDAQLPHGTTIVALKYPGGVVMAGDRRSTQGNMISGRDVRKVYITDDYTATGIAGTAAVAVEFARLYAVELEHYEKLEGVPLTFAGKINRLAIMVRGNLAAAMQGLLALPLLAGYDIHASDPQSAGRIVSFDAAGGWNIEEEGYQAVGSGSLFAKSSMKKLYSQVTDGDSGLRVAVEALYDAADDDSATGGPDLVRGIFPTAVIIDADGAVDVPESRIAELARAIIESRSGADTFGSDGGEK

Row | SMILES | RA at 100 µM against Mtb [1] [%] | RA at 10 µM against ß5i of IP [2] [%] | IC50 [2] [µM]
1 | Cc1coc2cc3oc(=O)c(CC(=O)N(C)CC#N)c(C)c3cc12 [Compound 54] | 95 | 99 | –
2 | Cc1cc(-c2coc3cc4oc(=O)c(CC(=O)N(C)CC#N)c(C)c4cc23)c(C)s1 [Compound 55] | 88 | 103 | –
3 | Cc1c(CC(=O)N(C)CC#N)c(=O)oc2cc3occ(-c4ccco4)c3cc12 [Compound 56] | 53 | 103 | –
4 | Cc1cc(-c2coc3cc4oc(=O)c(CC(=O)N(C)CC#N)c(C)c4cc23)c(C)o1 [Compound 57] | 100 | 96 | –
5 | Cc1c(CC(=O)N(C)CC#N)c(=O)oc2cc3occ(C4CCCCC4)c3cc12 [Compound 58] | 100 | 101 | –
6 | Cc1c(CC(=O)NCC#N)c(=O)oc2cc3occ(-c4ccccc4)c3cc12 [Compound 59] | 92 | 101 | –
7 | Cc1c(CC(=O)NCC#N)c(=O)oc2cc3occ(-c4ccc(Br)cc4)c3cc12 [Compound 60] | 87 | 105 | –
8 | Cc1c(CC(=O)NCC#N)c(=O)oc2cc3occ(C(C)(C)C)c3cc12 [Compound 61] | 92 | 91 | –
9 | Cc1cc(-c2coc3cc4oc(=O)c(CC(=O)NCC#N)c(C)c4cc23)c(C)s1 [Compound 63] | 95 | 101 | –
10 | Cc1c(CC(=O)NCC#N)c(=O)oc2cc3occ(-c4ccco4)c3cc12 [Compound 64] | 91 | 98 | –
11 | Cc1c(CC(=O)NCC#N)c(=O)oc2cc3occ(C4CCCCC4)c3cc12 [Compound 65] | 91 | 99 | –
12 | Cc1c(CCC(=O)ON2C(=O)CCC2=O)c(=O)oc2cc3occ(-c4ccccc4)c3cc12 [Compound 66] | 66 | – | 0.009 ± 0.002
13 | Cc1c(CCC(=O)ON2C(=O)CCC2=O)c(=O)oc2cc3occ(-c4ccc(Br)cc4)c3cc12 [Compound 67] | 96 | – | 1.9 ± 0.9
14 | COc1ccc(-c2coc3cc4oc(=O)c(CCC(=O)ON5C(=O)CCC5=O)c(C)c4cc23)cc1 [Compound 68] | 93 | – | 0.64 ± 0.13
15 | COc1cccc(-c2coc3cc4oc(=O)c(CCC(=O)ON5C(=O)CCC5=O)c(C)c4cc23)c1 [Compound 69] | 72 | – | 0.93 ± 0.57
16 | Cc1c(CCC(=O)ON2C(=O)CCC2=O)c(=O)oc2cc3occ(C(C)(C)C)c3cc12 [Compound 70] | 70 | 41 | –
17 | Cc1coc2cc3oc(=O)c(CCC(=O)ON4C(=O)CCC4=O)c(C)c3cc12 [Compound 71] | 97 | 66 | –
18 | Cc1cc(-c2coc3cc4oc(=O)c(CCC(=O)ON5C(=O)CCC5=O)c(C)c4cc23)c(C)s1 [Compound 72] | 95 | – | 1.8 ± 0.8
19 | Cc1c(CC(=O)ON2C(=O)CCC2=O)c(=O)oc2cc3occ(-c4ccccc4)c3cc12 [Compound 73] | 79 | – | 6.36 ± 0.61
20 | Cc1c(CC(=O)ON2C(=O)CCC2=O)c(=O)oc2cc3occ(-c4ccc(Br)cc4)c3cc12 [Compound 74] | 61 | 101 | –
21 | Cc1c(CC(=O)ON2C(=O)CCC2=O)c(=O)oc2cc3occ(C(C)(C)C)c3cc12 [Compound 75] | 88 | 53 | –
22 | Cc1coc2cc3oc(=O)c(CC(=O)ON4C(=O)CCC4=O)c(C)c3cc12 [Compound 76] | 53 | 101 | –
23 | Cc1c(CC(=O)ON2C(=O)CCC2=O)c(=O)oc2cc3occ(-c4ccco4)c3cc12 [Compound 77] | 56 | 44 | –
24 | Cc1c(CC(=O)ON2C(=O)CCC2=O)c(=O)oc2cc3occ(C4CCCCC4)c3cc12 [Compound 78] | 98 | 62 | –
25 | Cc1c(CCC(=O)ON2C(=O)CCC2=O)c(=O)oc2c(C)c3occ(-c4ccccc4)c3cc12 [Compound 79] | 100 | – | 3.26 ± 1.49
26 | Cc1c(CNC(=O)CC#N)c(=O)oc2cc3occ(-c4ccccc4)c3cc12 [Compound 81] | 100 | 101 | –
27 | C=CC(=O)NCc1c(C)c2cc3c(-c4ccccc4)coc3cc2oc1=O [Compound 82] | 68 | 90 | –
28 | CC=CC(=O)NCc1c(C)c2cc3c(-c4ccccc4)coc3cc2oc1=O [Compound 83] | 52 | 116 | –
29 | Cc1c(N)c(=O)oc2cc3occ(-c4ccccc4)c3cc12 [Compound 84] | 100 | 88 | –
30 | Cc1c(NC(=O)CC#N)c(=O)oc2cc3occ(-c4ccccc4)c3cc12 [Compound 85] | 93 | 115 | –

Source: publication PMC7144120, “Psoralen Derivatives as Inhibitors of Mycobacterium tuberculosis Proteasome” (Molecules, 2020)
